One block for each compound: values may come before it.
Key:
[1] = system: human lung cancer NCI-H1581 xenografts; assay: Growth of subcutaneous xenografts of human lung cancer NCI-H1581 in nude mice; type: in vivo; settings: for Relative tumor volume RTV (mean ± SD): NCI-H1581, 12.5 mg/kg orally once a day; for Weight (g, mean ± SD): NCI-H1581 tumor-bearing mice, 12.5 mg/kg orally once a day
Method: (§1) The diameter of the subcutaneously implanted tumor in nude mice was measured by a vernier caliper. […] In the compound HuFGFR267 50 mg/kg group, the compound was formulated with 0.5% methylcellulose (MC) to the required concentration before use. The formulation of compound was prepared once a week, and orally administered once a day for 14 days. The positive control drug AZD4547 was diluted to the required concentration with water for injection containing 1% Tween 80 before use. The formulation of AZD4547 was prepared once a week, and orally administered once a day for 14 days. In the solvent control group, an equal amount of water for injection was administrated.

[2] = system: human gastric cancer SNU-16 xenografts; assay: Growth of subcutaneous xenografts of human gastric cancer SNU-16 in nude mice (HuFGFR267 study); type: in vivo; settings: for Relative tumor volume RTV (mean ± SD): SNU-16, 12.5 mg/kg orally once a day; for Weight (g, mean ± SD): SNU-16 tumor-bearing mice, 12.5 mg/kg orally once a day
Method: as §1, with “The formulation of compound was prepared once a week, and orally administered once a day for 14 days.” left out, “The formulation of AZD4547 was prepared once a week, and orally administered once a day for 14 days.” left out

FGFR1 = FGFR1 (Homo sapiens, UniProt P11362); assay: Inhibition of receptor tyrosine kinase activity at molecular level (ELISA, Poly(Glu,Tyr)4:1 substrate phosphorylation); type: biochemical; settings: 10 nM compound; average of two independent experiments
Chain of FGFR1 (P11362 22-822): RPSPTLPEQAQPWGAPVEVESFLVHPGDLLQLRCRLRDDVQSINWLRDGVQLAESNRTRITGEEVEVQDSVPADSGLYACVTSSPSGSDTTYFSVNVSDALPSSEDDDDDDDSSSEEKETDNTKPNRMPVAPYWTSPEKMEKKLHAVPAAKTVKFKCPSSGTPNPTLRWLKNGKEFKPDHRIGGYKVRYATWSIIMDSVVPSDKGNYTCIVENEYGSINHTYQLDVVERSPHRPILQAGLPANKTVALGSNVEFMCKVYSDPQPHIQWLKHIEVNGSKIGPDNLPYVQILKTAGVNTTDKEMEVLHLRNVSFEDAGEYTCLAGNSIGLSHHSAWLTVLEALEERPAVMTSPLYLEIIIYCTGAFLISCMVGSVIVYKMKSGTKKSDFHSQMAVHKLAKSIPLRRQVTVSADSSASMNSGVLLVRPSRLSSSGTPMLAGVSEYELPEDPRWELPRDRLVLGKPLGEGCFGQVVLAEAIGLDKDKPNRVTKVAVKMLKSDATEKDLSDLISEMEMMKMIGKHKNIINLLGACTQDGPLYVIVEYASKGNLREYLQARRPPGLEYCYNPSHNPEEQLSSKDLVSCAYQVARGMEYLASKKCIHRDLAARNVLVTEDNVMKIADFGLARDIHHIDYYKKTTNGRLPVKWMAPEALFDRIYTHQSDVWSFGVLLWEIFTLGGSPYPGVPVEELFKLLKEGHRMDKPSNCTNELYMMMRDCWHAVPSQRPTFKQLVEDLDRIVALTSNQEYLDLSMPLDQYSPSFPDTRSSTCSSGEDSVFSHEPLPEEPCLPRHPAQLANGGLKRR
Method: (§2) Enzyme reaction substrate Poly(Glu, Tyr)4:1 was diluted with potassium-free PBS (10 mM sodium phosphate buffer, 150 mM NaCl, pH 7.2-7.4) to 20 μg/mL. […] The reaction was conducted under 37° C. for 12-16 hours. After the liquid was removed from the wells, the plate was washed three times with 200 μL/well of T-PBS (PBS containing 0.1% Tween-20), each for 5 minutes. The enzyme plate was dried in 37° C. dryer for 1-2 hours.
(§3) 50 μL ATP solution diluted with buffer (50 mM HEPES pH 7.4, 50 mM MgCl2, 0.5 mM MnCl2, 0.2 mM Na3VO4, 1 mM DTT) to a final concentration of 5 μM was added into each well. The compound was diluted with DMSO to a suitable concentration (1 μL/well) or the well contained the corresponding concentration of DMSO (negative control well) Then various kinase recombinant proteins diluted with 49 μL of reaction buffer was added to initiate the reaction. Each experiment required duplicate enzyme-free control well. The reaction was carried out for 1 hour on a 37° C. Shaker (100 rpm). The plate was washed three times with T-PBS. A dilution of the primary antibody PY99 was added (100 μL/well), and the reaction was conducted in a shaker at 37° C. for 0.5 hr. The plate was washed three times with T-PBS. A dilution of the horseradish peroxidase-labeled goat anti-mouse IgG secondary antibody was added (100 μL/well), and the reaction was conducted in a shaker at 37° C. for 0.5 hour. Plate was washed with T-PBS for three times. 2 mg/mL OPD coloration solution (diluted with 0.1 M citric acid-sodium citrate buffer containing 0.03% H2O2 (pH=5.4)) was added (100 μL/well), reacted for 1-10 minutes at 25° C. in dark. The reaction was quenched with 2M H2SO4 (50 μL/well), and read at 490 nm using a tunable microplate reader SPECTRA MAX 190.
(§4) The inhibition ratio of the sample was determined by the following formula: […]
(§5) The IC50 values were obtained via four-parameter regression analysis using the software supplied with the microplate reader.

KDR = KDR (Homo sapiens, UniProt P35968); assay: as above; type: biochemical; settings: 10 nM compound; average of two independent experiments
Chain of KDR (P35968 20-1356): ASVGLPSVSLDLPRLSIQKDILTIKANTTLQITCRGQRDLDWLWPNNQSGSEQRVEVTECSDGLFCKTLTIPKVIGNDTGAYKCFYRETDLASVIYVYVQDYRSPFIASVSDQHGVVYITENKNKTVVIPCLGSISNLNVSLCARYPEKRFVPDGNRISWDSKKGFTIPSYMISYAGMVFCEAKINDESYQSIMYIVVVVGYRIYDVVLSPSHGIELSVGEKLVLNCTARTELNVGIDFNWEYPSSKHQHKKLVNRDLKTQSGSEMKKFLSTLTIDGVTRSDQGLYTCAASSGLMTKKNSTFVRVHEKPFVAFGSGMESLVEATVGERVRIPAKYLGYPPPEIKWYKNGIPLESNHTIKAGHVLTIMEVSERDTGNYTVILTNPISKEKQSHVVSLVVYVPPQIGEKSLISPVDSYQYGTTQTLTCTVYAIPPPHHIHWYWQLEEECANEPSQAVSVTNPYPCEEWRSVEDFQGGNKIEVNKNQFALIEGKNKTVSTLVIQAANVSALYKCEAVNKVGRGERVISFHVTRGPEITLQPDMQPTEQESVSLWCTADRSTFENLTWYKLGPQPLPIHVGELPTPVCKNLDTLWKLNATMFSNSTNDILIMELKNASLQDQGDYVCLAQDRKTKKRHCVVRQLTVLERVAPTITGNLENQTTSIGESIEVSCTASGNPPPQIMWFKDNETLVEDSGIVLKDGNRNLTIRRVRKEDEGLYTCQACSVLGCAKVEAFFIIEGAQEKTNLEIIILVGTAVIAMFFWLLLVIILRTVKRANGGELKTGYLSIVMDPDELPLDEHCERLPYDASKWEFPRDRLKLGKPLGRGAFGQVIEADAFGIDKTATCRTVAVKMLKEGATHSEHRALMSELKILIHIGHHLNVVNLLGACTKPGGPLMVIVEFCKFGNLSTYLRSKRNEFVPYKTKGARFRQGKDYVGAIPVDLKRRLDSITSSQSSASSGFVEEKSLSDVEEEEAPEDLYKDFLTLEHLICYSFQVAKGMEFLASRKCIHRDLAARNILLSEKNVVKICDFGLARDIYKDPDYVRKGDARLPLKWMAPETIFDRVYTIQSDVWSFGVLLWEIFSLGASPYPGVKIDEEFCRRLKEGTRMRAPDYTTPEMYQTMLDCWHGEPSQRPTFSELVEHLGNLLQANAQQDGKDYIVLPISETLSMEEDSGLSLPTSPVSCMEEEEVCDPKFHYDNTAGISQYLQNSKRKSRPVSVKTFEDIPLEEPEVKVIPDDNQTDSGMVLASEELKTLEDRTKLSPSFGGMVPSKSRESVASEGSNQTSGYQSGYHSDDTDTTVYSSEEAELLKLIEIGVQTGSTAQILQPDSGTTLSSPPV
Method: as §2, §3, §4, §5

RET = RET (Homo sapiens, UniProt P07949); assay: as above; type: biochemical; settings: for 10 nM inhibition ratio RET: 10 nM compound, average of two independent experiments
Chain of RET (P07949 29-1114): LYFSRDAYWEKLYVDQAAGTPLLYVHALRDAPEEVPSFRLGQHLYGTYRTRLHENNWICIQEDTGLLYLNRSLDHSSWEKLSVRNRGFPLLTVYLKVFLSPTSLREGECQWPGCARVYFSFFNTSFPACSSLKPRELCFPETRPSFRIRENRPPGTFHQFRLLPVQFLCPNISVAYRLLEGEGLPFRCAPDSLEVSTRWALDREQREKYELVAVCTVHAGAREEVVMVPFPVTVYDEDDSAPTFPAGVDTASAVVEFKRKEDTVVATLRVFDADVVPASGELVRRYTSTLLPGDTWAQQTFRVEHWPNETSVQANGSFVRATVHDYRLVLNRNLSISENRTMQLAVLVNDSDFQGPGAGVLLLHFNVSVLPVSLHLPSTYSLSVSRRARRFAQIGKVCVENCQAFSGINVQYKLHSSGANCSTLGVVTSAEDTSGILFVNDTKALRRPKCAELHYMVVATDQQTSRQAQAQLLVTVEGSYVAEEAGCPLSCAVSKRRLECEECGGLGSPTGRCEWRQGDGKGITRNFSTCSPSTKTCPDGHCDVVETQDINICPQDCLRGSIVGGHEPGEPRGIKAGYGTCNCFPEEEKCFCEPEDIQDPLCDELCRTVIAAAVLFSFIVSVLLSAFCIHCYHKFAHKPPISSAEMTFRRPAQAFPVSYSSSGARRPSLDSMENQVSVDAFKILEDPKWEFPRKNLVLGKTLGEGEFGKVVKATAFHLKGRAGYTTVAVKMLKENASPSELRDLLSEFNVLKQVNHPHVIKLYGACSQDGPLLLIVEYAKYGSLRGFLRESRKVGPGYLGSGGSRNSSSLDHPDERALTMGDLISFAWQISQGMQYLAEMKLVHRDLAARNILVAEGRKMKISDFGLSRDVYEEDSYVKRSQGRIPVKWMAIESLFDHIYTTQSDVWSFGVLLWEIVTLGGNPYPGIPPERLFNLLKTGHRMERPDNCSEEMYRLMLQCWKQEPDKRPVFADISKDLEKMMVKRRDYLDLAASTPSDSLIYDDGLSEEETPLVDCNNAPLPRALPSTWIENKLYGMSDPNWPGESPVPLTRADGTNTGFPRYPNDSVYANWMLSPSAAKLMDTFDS
Method: as §2, §3, §4, §5

Ret (V804M) = molecular target: T1, Ret (V804M) (Homo sapiens, UniProt P07949, V804M); assay: Inhibition of RET-related mutant enzyme activity (ELISA); type: biochemical; settings: measured twice, Mean ± SD
T1 construct: purchased
T1 sequence (P07949 29-1114 V804M): as the sequence (P07949 29-1114) above, with V776M counted along it
Method: Enzyme reaction substrate Poly(Glu, Tyr)4:1 was diluted with potassium-free PBS (10 mM sodium phosphate buffer, 150 mM NaCl, pH 7.2-7.4) to 20 μg/mL. The enzyme label plate was coated with 125 μL/well. The reaction was conducted under 37° C. for 12-16 hours. After the liquid was removed from the wells, the plate was washed three times with 200 μL/well of T-PBS (PBS containing 0.1% Tween-20), each for 5 minutes. The enzyme plate was dried in 37° C. dryer for 1-2 hours.
50 μL ATP solution diluted with buffer (50 mM HEPES pH 7.4, 50 mM MgCl2, 0.5 mM MnCl2, 0.2 mM Na3VO4, 1 mM DTT) to a final concentration of 5 μM was added into each well. The compound was diluted with DMSO to a suitable concentration (1 μL/well) or the well contained the corresponding concentration of DMSO (negative control well) Then various kinase recombinant proteins diluted with 49 μL of reaction buffer was added to initiate the reaction. Each experiment required duplicate enzyme-free control well. The reaction was carried out for 1 hour on a 37° C. Shaker (100 rpm). […] The reaction was quenched with 2M H2SO4 (50 μL/well), and read at 490 nm using a tunable microplate reader SPECTRA MAX 190.
as §4
The IC50 values were obtained via four-parameter regression analysis using the software supplied with the microplate reader. […]

[3] = system: RET signaling pathway in TT and BaF3/CCDC6-RET cells; assay: Western blotting of RET signaling pathway activation in cells; type: cell-based; settings: compounds 2 hours; P-RET, P-AKT, P-ErK
Method: Detecting the Effect of Compounds on the Activation of RET Signaling Pathway in TT and BaF3/CCDC6-RET Cells by Western Blotting
The cells were seeded into a 12-well plate (250,000/well). After incubation for 18-24 hours, the compounds were added to react for 2 hours, and then the cells were collected and firstly washed once with cold PBS (containing 1 mmol sodium vanadate); then 1×SDS gel loading buffer (50 mmol Tris-HCl (pH 6.8), 100 mmol DTT, 2% SDS, 10% glycerol, 1 mmol sodium vanadate, 0.1% bromophenol blue) was added to lyse cells. The cell lysate was heated in a boiling water bath for 10 minutes, and then centrifuged at 12,000 rpm for 10 minutes at 4° C.
The supernatant was taken for SDS-PAGE electrophoresis (Mini-PROTEAN 3 Cell, Bio-Rad, Hercules, Calif., USA). After electrophoresis, the proteins were transferred to a nitrocellulose membrane using a semi-dry electrotransfer system (Amersham Life Sciences, Arlington Heights, Ill., USA). The nitrocellulose membrane was placed in a blocking solution (5% skim milk powder diluted in TBS containing 1 mmol sodium vanadate) for 2 hours at room temperature, and then the membrane was placed and reacted with a primary antibody at 4° C. overnight. […] The membrane was placed in a secondary antibody solution and reacted for 1-2 hours at room temperature. After the membrane was washed three times as above, the membrane was stained using ECL (Picece, Rockford, Ill.) reagent was used for staining and then developed.

[4] = Pharmacokinetic experiment in rat (IV and PO, plasma LC-MS/MS)
Method: (§6) Ponatinib (AP24534) was administered intravenously (IV) and orally (PO) to SD rats. Blood samples were taken at different time points. LC-MS/MS was used to determine the concentration of compound in the plasma of rats after administration of the test compound, and the relevant pharmacokinetic parameters were calculated to examine oral bioavailability and pharmacokinetic properties of the compound in rats.
as §6, with “Compound HuFGFR267” for “Ponatinib (AP24534)”, “intravenously” for “intravenously (IV)”, “orally” for “orally (PO)”

[5] = system: human gastric cancer SNU-16 xenografts; assay: Growth of subcutaneous xenografts of human gastric cancer SNU-16 in nude mice (comparative compounds study); settings: for Relative tumor volume RTV (mean ± SD): SNU-16, 30 mg/kg orally once a day; for Weight (g, mean ± SD): SNU-16 tumor-bearing mice, 30 mg/kg orally once a day

SMILES: COc1cc(CCc2cc(NC(=O)c3ccc(N4C[C@@H](C)N[C@@H](C)C4)cc3)n[nH]2)cc(OC)c1 [AZD4547, reference compound]
- relative tumor proliferation rate T/C ([1]; NCI-H1581, 12.5 mg/kg orally once a day for 14 days, 14th day): 24.03%
- Relative tumor volume RTV (mean ± SD) ([1]; d0): 1.00 ± 0.00
- Relative tumor volume RTV (mean ± SD) ([1]; d3): 1.27 ± 0.44
- Relative tumor volume RTV (mean ± SD) ([1]; d7): 3.43 ± 1.14
- Relative tumor volume RTV (mean ± SD) ([1]; d10): 5.57 ± 3.62
- Relative tumor volume RTV (mean ± SD) ([1]; d14): 13.81 ± 4.56
- animal deaths during the experiment ([1]; NCI-H1581, each group (HuFGFR267 50 mg/kg, AZD4547 12.5 mg/kg)): no mice died
- Weight (g, mean ± SD) ([1]; d0): 18.2 ± 1.6 g
- Weight (g, mean ± SD) ([1]; d3): 19.3 ± 1.6 g
- Weight (g, mean ± SD) ([1]; d7): 20.1 ± 1.9 g
- Weight (g, mean ± SD) ([1]; d10): 20.6 ± 2.2 g
- Weight (g, mean ± SD) ([1]; d14): 21.3 ± 2.3 g
- relative tumor proliferation rate T/C ([2]; SNU-16, 12.5 mg/kg orally once a day for 21 days, day 21): 18.46%
- Relative tumor volume RTV (mean ± SD) ([2]; d0): 1.00 ± 0.00
- Relative tumor volume RTV (mean ± SD) ([2]; d3): 0.92 ± 0.29
- Relative tumor volume RTV (mean ± SD) ([2]; d7): 2.34 ± 1.23
- Relative tumor volume RTV (mean ± SD) ([2]; d10): 2.96 ± 2.19
- Relative tumor volume RTV (mean ± SD) ([2]; d14): 3.36 ± 3.14
- Relative tumor volume RTV (mean ± SD) ([2]; d17): 3.77 ± 2.56
- Relative tumor volume RTV (mean ± SD) ([2]; d21): 4.33 ± 3.29
- animal deaths during the experiment ([2]; SNU-16, each group (HuFGFR267 50 and 25 mg/kg, AZD4547 12.5 mg/kg)): no mice died
- Weight (g, mean ± SD) ([2]; d0): 18.8 ± 1.2 g
- Weight (g, mean ± SD) ([2]; d3): 19.5 ± 1.3 g
- Weight (g, mean ± SD) ([2]; d7): 20.0 ± 1.5 g
- Weight (g, mean ± SD) ([2]; d10): 20.7 ± 1.5 g
- Weight (g, mean ± SD) ([2]; d14): 21.1 ± 1.6 g
- Weight (g, mean ± SD) ([2]; d17): 20.9 ± 1.7 g
- Weight (g, mean ± SD) ([2]; d21): 21.0 ± 1.7 g

- 10 nM inhibition ratio FGFR1 (FGFR1): 74.7
- 10 nM inhibition ratio KDR (KDR): 35.2
- 10 nM inhibition ratio RET (RET): 57.7
- IC50 (RET; measured twice, Mean ± SD): 6 ± 0.4 nM
- IC50 (Ret (V804M)): 17.9 ± 5.4 nM
SMILES: CN1CCN(Cc2ccc(NC(=O)c3cccc(C#Cc4cccnc4N)c3)cc2C(F)(F)F)CC1 [Example 6]
- inhibition of RET phosphorylation and downstream signaling pathway (Western blot, FIG. 1) [3]: inhibited RET phosphorylation and the downstream signaling pathway

SMILES: Cc1ccc(C(=O)Nc2ccc(CN3CCN(C)CC3)c(C(F)(F)F)c2)cc1C#Cc1cnc2cccnn12 [Ponatinib]
- 10 nM inhibition ratio FGFR1 (FGFR1): 79.5
- 10 nM inhibition ratio KDR (KDR): 85.3
- 10 nM inhibition ratio RET (RET): 87.5
- inhibition of RET phosphorylation and downstream signaling pathway (Western blot, FIG. 1) [3]: inhibited RET phosphorylation and the downstream signaling pathway
- F ([4]; SD rats, PO (10 mg/kg) vs IV (2 mg/kg)): 24.4%
- AUC0-t ([4]; SD, rat, plasma, iv, 2 mg/kg): 1410 ng·h/mL
- Vd ([4]; SD, rat, plasma, iv, 2 mg/kg): 7.78 L/kg
- clearance ([4]; SD, rat, plasma, iv, 2 mg/kg): 22.2 mL/min/kg
- half-life ([4]; SD, rat, plasma, iv, 2 mg/kg): 4.24 h
- AUC0-t ([4]; SD, rat, plasma, po, 10 mg/kg): 1600 ng·h/mL
- Cmax ([4]; SD, rat, plasma, po, 10 mg/kg): 241 ng/mL
- Tmax ([4]; SD, rat, plasma, po, 10 mg/kg): 2.33 h
- half-life ([4]; SD, rat, plasma, po, 10 mg/kg): 8.29 h
- relative tumor proliferation rate T/C ([5]; SNU-16, 30 mg/kg orally once a day for 21 days, day 21): 36.20%
- Relative tumor volume RTV (mean ± SD) ([5]; d0): 1.00 ± 0.00
- Relative tumor volume RTV (mean ± SD) ([5]; d3): 1.46 ± 0.30
- Relative tumor volume RTV (mean ± SD) ([5]; d7): 1.56 ± 0.52
- Relative tumor volume RTV (mean ± SD) ([5]; d10): 1.56 ± 0.22
- Relative tumor volume RTV (mean ± SD) ([5]; d14): 2.00 ± 0.38
- Relative tumor volume RTV (mean ± SD) ([5]; d17): 1.94 ± 0.47
- Relative tumor volume RTV (mean ± SD) ([5]; d21): 2.10 ± 0.34
- Weight (g, mean ± SD) ([5]; d0): 23.6 ± 2.5 g
- Weight (g, mean ± SD) ([5]; d3): 24.2 ± 2.9 g
- Weight (g, mean ± SD) ([5]; d7): 23.5 ± 2.8 g
- Weight (g, mean ± SD) ([5]; d10): 23.7 ± 2.9 g
- Weight (g, mean ± SD) ([5]; d14): 24.5 ± 2.8 g
- Weight (g, mean ± SD) ([5]; d17): 24.1 ± 2.6 g
- Weight (g, mean ± SD) ([5]; d21): 24.6 ± 3.1 g

— patent US10988456B2, “O-aminoheteroaryl alkynyl-containing compound, preparation method therefor, and use thereof” (SHANGHAI INSTITUTE OF MATERIA MEDICA, CHINESE ACADEMY OF …, priority 2017, dated 2021)
